# Values of other authors as cited in US6596297B2, “Biodegradable microbicidal vaginal barrier device” (New York Blood Center, Inc., priority 2002, dated 2003).
# Tested on: HIV-1
substance,measurement,value
Nonoxynol-9 [N-9],risk of sexual transmission of HIV-1,increase the risk of sexual transmission of HIV-1
